According to ChEMBL document CHEMBL1143282, “Synthesis and evaluation of photoreactive probes to elucidate iodide efflux in thyrocytes” (Bioorg Med Chem Lett, 2009):
Active and inactive are the calls of the source. The rule behind the calls is not given here.

Assays:
FRTL-5 [1] = experiment: Iodide sequestering activity in rat FRTL5 cells assessed as enhancement of intracellular iodide entrapment at 0.1 to 200 uM after 120 mins in dark by scintillation counting; format: functional, cell-based
[2] = Chemical stability in MeCN/H2O at 4mCi/mL; format: physicochemical
FRTL-5 [3] = experiment: Iodide sequestering activity in rat FRTL5 cells assessed as enhancement of intracellular iodide entrapment at 200 uM after 120 mins in dark by scintillation counting relative to sodium perchlorate; format: functional
[4] = Chemical stability assessed as photodecomposition-associated half life in MeCN using UV lamp; format: physicochemical; details: MeCN solution irradiated with UV lamp
FRTL-5 [5] = experiment: Iodide sequestering activity in rat FRTL5 cells assessed as enhancement of intracellular iodide entrapment after 120 mins in dark by scintillation counting; format: functional, cell-based; details: for EC50: FRTL-5, 2 h
FRTL-5 [6] = experiment: Iodide sequestering activity in rat FRTL5 cells assessed as enhancement of intracellular iodide entrapment at 50 uM after 120 mins in dark by scintillation counting relative to sodium perchlorate; format: functional
FRTL-5 [7] = experiment: Iodide sequestering activity in rat FRTL5 cells assessed as enhancement of intracellular iodide entrapment at 20 uM after 120 mins in dark by scintillation counting relative to sodium perchlorate; format: functional

[N-]=[N+]=Nc1ccc(-c2ccc(C3=CSC4=NCCN34)cc2)cc1
Activity (FRTL-5 [1]): inactive

FC(F)(F)C1(c2ccc(C3=CSC4=NCCN34)cc2)N=N1
Activity (FRTL-5 [1]): inactive

N#[N+]c1ccc(-c2ccc(C3=CSC4=NCCN34)cc2)cc1
Activity (FRTL-5 [1]): inactive

[3H]C1=C(c2ccc(C(=O)c3ccccc3)cc2)N2CCN=C2S1
Stability [2]: 6 months

O=C(c1ccccc1)c1ccc(C2=CSC3=NCCN23)cc1
fold change (FC) (FRTL-5 [3]): 2.5 | half-life [4]: 12 min | Activity (FRTL-5 [1]): Active | Activity (FRTL-5 [5]): Dose-dependent effect | EC50 (FRTL-5 [5]): 50 µM | fold change (FC) (FRTL-5 [6]): 1.8

C1=C(c2ccc(-c3ccccc3)cc2)N2CCN=C2S1
fold change (FC) (FRTL-5 [7]): 2.5 | EC50 (FRTL-5 [5]): 20 µM
